Test results as given in patent US7304094B2, “Cyclohexyl sulphones” (Merck Sharp + Dohme, priority 2001, dated 2007).

O=C(C[C@H]1CC[C@@](c2cc(F)ccc2F)(S(=O)(=O)c2ccc(Cl)cc2)CC1)c1ncn[nH]1 [Example 91]
melting point: 147 to 154 °C
